pIC50: −log10 of the molar value.
Assays:
MDA-MB-231 = experiment: Antiproliferative activity against human MDA-MB-231 cells after 72 hrs by sulforhodamine B assay; type: functional, cell-based; details: MDA-MB-231, 72 h
HCT-116 = experiment: Antiproliferative activity against human HCT116 cells after 72 hrs by sulforhodamine B assay; type: functional, cell-based; details: HCT-116, 72 h
A549 = experiment: Antiproliferative activity against human A549 cells after 72 hrs by sulforhodamine B assay; type: functional, cell-based; details: A549, 72 h
SK-HEP1 = experiment: Antiproliferative activity against human SKHEP1 cells after 72 hrs by sulforhodamine B assay; type: functional, cell-based; details: SK-HEP1, 72 h
SNU-638 = experiment: Antiproliferative activity against human SNU638 cells after 72 hrs by sulforhodamine B assay; type: functional, cell-based; details: SNU-638, 72 h
MRC5 = experiment: Antiproliferative activity against human MRC5 cells after 72 hrs by sulforhodamine B assay; type: cell-based; details: MRC5, 72 h

- pIC50 (MDA-MB-231): 5.41
- pIC50 (HCT-116): 6.28
- pIC50 (A549): 6.32
- pIC50 (SK-HEP1): 6.11
- pIC50 (SNU-638): 6.09
Compound: COc1cc([C@@H]2c3cc4c(cc3[C@@H](O[C@@H]3O[C@@H]5CO[C@@H](C)O[C@H]5[C@H](O)[C@H]3O)[C@H]3COC(=O)[C@H]23)OCO4)cc(OC)c1O [ETOPOSIDE]
- pIC50 (MRC5): 4.95

Source: ChEMBL document CHEMBL4342450, “Antitumor Activity of Ohmyungsamycin A through the Regulation of the Skp2-p27 Axis and MCM4 in Human Colorectal Cancer Cells” (J Nat Prod, 2020)
